In the supplement of paper PMC4862054:

Key:
SK-BR-3 = assay: normalised viability (% of control), CellTiter-Blue; higher = more viable cells (about 100 = DMSO control); conditions: incubation time: 72 h
Procedure, shortened: (§1)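 Compound dissolved in 5 µl medium was pre-loaded into 384-well plates, and breast cancer cell lines in 20 µl suspension were seeded on top and incubated 72 h. After adding 2.5 µl CellTiter-Blue reagent for 2 h at 37 °C, fluorescence was read at 560/590 nm. Plates were normalised to vehicle (100) and a positive kill control (0), with Z'-factor quality control. Each value is normalised viability at a single listed concentration from the series.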

MDA-MB-436 [1] = assay: as above; conditions: incubation time: 72 h
Procedure, shortened: as §1

HCC1937 [2] = assay: as above; conditions: incubation time: 72 h
Procedure, shortened: as §1

MDA-MB-453 = assay: as above; conditions: incubation time: 72 h
Procedure, shortened: as §1

HCC1599 = assay: as above; conditions: incubation time: 72 h
Procedure, shortened: as §1

HCC1143 = assay: as above; conditions: incubation time: 72 h
Procedure, shortened: as §1

CAL-148 = assay: as above; conditions: incubation time: 72 h
Procedure, shortened: as §1

Hs578T = assay: as above; conditions: incubation time: 72 h
Procedure, shortened: as §1

CAL-51 = assay: as above; conditions: incubation time: 72 h
Procedure, shortened: as §1

MDA-MB-231 = assay: as above; conditions: incubation time: 72 h
Procedure, shortened: as §1

DU-4475 = assay: as above; conditions: incubation time: 72 h
Procedure, shortened: as §1

BT-549 = assay: as above; conditions: incubation time: 72 h
Procedure, shortened: as §1

MFM-223 = assay: as above; conditions: incubation time: 72 h
Procedure, shortened: as §1

MDA-MB-468 = assay: as above; conditions: incubation time: 72 h
Procedure, shortened: as §1

HDQ-P1 = assay: as above; conditions: incubation time: 72 h
Procedure, shortened: as §1

BT-474 = assay: as above; conditions: incubation time: 72 h
Procedure, shortened: as §1

CAL-120 = assay: as above; conditions: incubation time: 72 h
Procedure, shortened: as §1

CAL-85-1 = assay: as above; conditions: incubation time: 72 h
Procedure, shortened: as §1

MDA-MB-436 [3] = conditions: 72 h
Procedure, shortened: (§2)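 Viability of breast cancer cell lines was measured with CellTiter-Blue after 72 h of incubation on compound-loaded 384-well plates. Cells were seeded in 20 µl onto compound dissolved in 5 µl medium, and 2.5 µl reagent was added for 2 h at 37 °C before reading at 560/590 nm. EC50 was fitted from percent-inhibition dose-response data censored at the highest concentration, normalised per plate to vehicle and a positive kill control, with zero drug sensitivity score rows dropped.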

HCC1937 [4] = conditions: 72 h
Procedure, shortened: as §2

C[C@]1(c2nc3c(C(N)=O)cccc3[nH]2)CCCN1 [Veliparib]
normalised viability [%]
Conditions | 3 nM | 10 nM | 30 nM | 100 nM | 1000 nM | 10000 nM
BT-474 | – | 101 | – | – | 103 | 104
BT-549 | – | 95.3 | – | – | 112 | 81.7
CAL-51 | 114 | – | 105 | 106 | – | –
CAL-85-1 | 87.9 | – | 84.9 | 84.7 | – | –
CAL-120 | – | 81.7 | – | – | 77 | 70.2
CAL-148 | 89.3 | – | 86.4 | 85.6 | – | –
DU-4475 | 78.6 | – | 78.3 | 83.4 | – | –
HCC1143 | – | 66.6 | – | – | 76.4 | 75.3
HCC1599 | – | 100 | – | – | 98.3 | 100
HCC1937 [2] | – | 72.2 | – | – | 70 | 61.7
HDQ-P1 | 85.6 | – | 93.3 | 95.9 | – | –
Hs578T | – | 101 | – | – | 99.9 | 100
MDA-MB-231 | – | 80.8 | – | – | 90.3 | 94.8
MDA-MB-436 [1] | – | 83.3 | – | – | 89.1 | 84.6
MDA-MB-453 | 109 | – | 98.9 | 94.4 | – | –
MDA-MB-468 | – | 113 | – | – | 105 | 98.9
MFM-223 | – | 88.1 | – | – | 90.3 | 103
SK-BR-3 | – | 93.8 | – | – | 93.6 | 84.6

CS(=O)(=O)c1ccc(C(=O)Nc2ccc(Cl)c(-c3ccccn3)c2)c(Cl)c1 [Vismodegib]
normalised viability [%]
Conditions | 3 nM | 10 nM | 30 nM | 100 nM | 1000 nM | 10000 nM
BT-474 | – | 102 | – | – | 118 | 77.5
BT-549 | – | 102 | – | – | 112 | 79.2
CAL-51 | 114 | – | 104 | 106 | – | –
CAL-85-1 | 97.9 | – | 93.7 | 109 | – | –
CAL-120 | – | 89.7 | – | – | 90.8 | 85.6
CAL-148 | 79.8 | – | 93.5 | 92.2 | – | –
DU-4475 | 107 | – | 110 | 110 | – | –
HCC1143 | – | 93.1 | – | – | 93.6 | 92.9
HCC1599 | – | 112 | – | – | 97.7 | 84.1
HCC1937 [2] | – | 57.2 | – | – | 91.4 | 83.9
HDQ-P1 | 100 | – | 96.5 | 88.8 | – | –
Hs578T | – | 106 | – | – | 108 | 93.3
MDA-MB-231 | – | 115 | – | – | 97.7 | 92
MDA-MB-436 [1] | – | 90.9 | – | – | 23.6 | 76
MDA-MB-453 | 106 | – | 113 | 104 | – | –
MDA-MB-468 | – | 104 | – | – | 103 | 88.7
MFM-223 | – | 92.4 | – | – | 108 | 99.6
SK-BR-3 | – | 107 | – | – | 105 | 95.2

Conditions | EC50, CellTiter-Blue viability [µM]
HCC1937 [4] | 3.92
MDA-MB-436 [3] | 0.0588
